Results published in ChEMBL document CHEMBL1201862, “PubChem BioAssay data set” (2004).
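Interpolation was linear, between the two tested concentrations surrounding the appropriate level; five concentrations were tested over 48 hours in 96-well plates. At the GI50, growth is halved.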 Calls of active or inactive are those of the source. No stated cut-off is given here; in the data, active = GI50 up to about 1.1 µM and inactive = higher.

Legend:
Test in all cases: NCI anticancer screen, dose series, 48 h
HCC 2998 = test system: HCC 2998
HOP-62 = test system: HOP-62
SNB-75 = test system: SNB-75
OVCAR-8 = test system: OVCAR-8
ACHN = test system: ACHN
OVCAR-5 = test system: OVCAR-5
786-0 = test system: 786-0
A498 = test system: A498
A549 = test system: A549
U-251 = test system: U-251
UACC-62 = test system: UACC-62
PC-3 = test system: PC-3
HCT-116 = test system: HCT-116
NCI-H23 = test system: NCI-H23
NCI-H460 = test system: NCI-H460
HOP-92 = test system: HOP-92
SW-620 = test system: SW-620
CCRF-CEM = test system: CCRF-CEM
Malme-3M = test system: Malme-3M
RXF 393 = test system: RXF 393
MOLT-4 = test system: MOLT-4
SF-295 = test system: SF-295
T47D = test system: T47D
EKVX = test system: EKVX
SNB-19 = test system: SNB-19
MDA-MB-231 = test system: MDA-MB-231
K562 = test system: K562
SF-268 = test system: SF-268
TK-10 = test system: TK-10
MDA-MB-435 = test system: MDA-MB-435
CAKI-1 = test system: CAKI-1
COLO 205 = test system: COLO 205
Hs-578T = test system: Hs-578T
HT-29 = test system: HT-29
SF-539 = test system: SF-539
HL-60 = test system: HL-60
NCI/ADR-RES = test system: NCI/ADR-RES
RPMI-8226 = test system: RPMI-8226
KM12 = test system: KM12
SR = test system: SR
HCT-15 = test system: HCT-15
BT-549 = test system: BT-549
MDA-N = test system: MDA-N
SK-OV-3 = test system: SK-OV-3
MCF7 = test system: MCF7
LOX IMVI = test system: LOX IMVI
DU-145 = test system: DU-145
SK-MEL-2 = test system: SK-MEL-2
OVCAR-3 = test system: OVCAR-3
M14 = test system: M14
IGROV-1 = test system: IGROV-1
UACC-257 = test system: UACC-257
SN12C = test system: SN12C
NCI-H522 = test system: NCI-H522
SK-MEL-5 = test system: SK-MEL-5
OVCAR-4 = test system: OVCAR-4
NCI-H226 = test system: NCI-H226
SK-MEL-28 = test system: SK-MEL-28
UO-31 = test system: UO-31

COc1cc2c3cc1Oc1c(OC)c(OC)cc4c1C(=NCC4)Cc1ccc(cc1)Oc1cc(ccc1O)C[C@H]3N(C)CC2
GI50 (HCC 2998): 13.4 µM (inactive) | GI50 (HOP-62): 22.3 µM (inactive) | GI50 (SNB-75): 14.1 µM (inactive) | GI50 (OVCAR-8): 16 µM (inactive) | GI50 (ACHN): 23.1 µM (inactive) | GI50 (OVCAR-5): 45.6 µM (inactive) | GI50 (786-0): 10.4 µM (inactive) | GI50 (A498): 22 µM (inactive) | GI50 (A549): 37.5 µM (inactive) | GI50 (U-251): 17.4 µM (inactive) | GI50 (UACC-62): 16.7 µM (inactive) | GI50 (PC-3): 13.2 µM (inactive) | GI50 (HCT-116): 12 µM (inactive) | GI50 (NCI-H23): 19.1 µM (inactive) | GI50 (NCI-H460): 15.6 µM (inactive) | GI50 (HOP-92): 13.6 µM (inactive) | GI50 (SW-620): 17.3 µM (inactive) | GI50 (CCRF-CEM): 30 µM (inactive) | GI50 (Malme-3M): 0.601 µM (active) | GI50 (RXF 393): 10 µM (inactive) | GI50 (MOLT-4): 11.9 µM (inactive) | GI50 (SF-295): 19.4 µM (inactive) | GI50 (T47D): 21 µM (inactive) | GI50 (EKVX): 23.2 µM (inactive) | GI50 (SNB-19): 23.4 µM (inactive) | GI50 (MDA-MB-231): 12.9 µM (inactive) | GI50 (K562): 12.7 µM (inactive) | GI50 (SF-268): 22.6 µM (inactive) | GI50 (TK-10): 20.6 µM (inactive) | GI50 (MDA-MB-435): 18.5 µM (inactive) | GI50 (CAKI-1): 20.6 µM (inactive) | GI50 (COLO 205): 13.5 µM (inactive) | GI50 (Hs-578T): 17.6 µM (inactive) | GI50 (HT-29): 10.8 µM (inactive) | GI50 (SF-539): 14.8 µM (inactive) | GI50 (HL-60): 14 µM (inactive) | GI50 (NCI/ADR-RES): 13.6 µM (inactive) | GI50 (RPMI-8226): 16.3 µM (inactive) | GI50 (KM12): 15 µM (inactive) | GI50 (SR): 5.74 µM (inactive) | GI50 (HCT-15): 12.2 µM | GI50 (BT-549): 12.5 µM (inactive) | GI50 (MDA-N): 16.6 µM (inactive) | GI50 (SK-OV-3): 48.6 µM (inactive) | GI50 (MCF7): 25.8 µM (inactive) | GI50 (LOX IMVI): 12.6 µM (inactive) | GI50 (DU-145): 25.4 µM (inactive) | GI50 (SK-MEL-2): 16.7 µM (inactive) | GI50 (OVCAR-3): 17.7 µM (inactive) | GI50 (M14): 16.3 µM (inactive) | GI50 (IGROV-1): 25.4 µM (inactive) | GI50 (UACC-257): 16 µM (inactive) | GI50 (SN12C): 22.9 µM (inactive) | GI50 (NCI-H522): 10.7 µM (inactive) | GI50 (SK-MEL-5): 12.2 µM (inactive) | GI50 (OVCAR-4): 16.1 µM (inactive) | GI50 (NCI-H226): 22.6 µM (inactive) | GI50 (SK-MEL-28): 16.7 µM (inactive)

COc1cccc(C(=O)C(O)c2cccc(OC)c2OC)c1OC (stereo unspecified)
GI50 (HCC 2998): > 100 µM (inactive) | GI50 (HOP-62): > 100 µM (inactive) | GI50 (SNB-75): > 100 µM (inactive) | GI50 (OVCAR-8): > 100 µM (inactive) | GI50 (ACHN): > 100 µM (inactive) | GI50 (OVCAR-5): > 100 µM (inactive) | GI50 (786-0): > 100 µM (inactive) | GI50 (A498): > 100 µM (inactive) | GI50 (A549): > 100 µM (inactive) | GI50 (U-251): > 100 µM (inactive) | GI50 (UACC-62): > 100 µM (inactive) | GI50 (PC-3): > 100 µM (inactive) | GI50 (HCT-116): > 100 µM (inactive) | GI50 (NCI-H23): > 100 µM (inactive) | GI50 (NCI-H460): > 100 µM (inactive) | GI50 (HOP-92): > 100 µM (inactive) | GI50 (SW-620): > 100 µM (inactive) | GI50 (CCRF-CEM): > 100 µM (inactive) | GI50 (Malme-3M): > 100 µM (inactive) | GI50 (RXF 393): > 100 µM (inactive) | GI50 (MOLT-4): > 100 µM (inactive) | GI50 (SF-295): > 100 µM (inactive) | GI50 (T47D): > 100 µM (inactive) | GI50 (EKVX): > 100 µM (inactive) | GI50 (SNB-19): > 100 µM (inactive) | GI50 (MDA-MB-231): > 100 µM (inactive) | GI50 (SF-268): > 100 µM (inactive) | GI50 (TK-10): > 100 µM (inactive) | GI50 (MDA-MB-435): > 100 µM (inactive) | GI50 (CAKI-1): > 100 µM (inactive) | GI50 (COLO 205): > 100 µM (inactive) | GI50 (Hs-578T): > 100 µM (inactive) | GI50 (HT-29): > 100 µM (inactive) | GI50 (SF-539): > 100 µM (inactive) | GI50 (HL-60): > 100 µM (inactive) | GI50 (NCI/ADR-RES): > 100 µM (inactive) | GI50 (RPMI-8226): > 100 µM (inactive) | GI50 (KM12): > 100 µM (inactive) | GI50 (SR): > 100 µM (inactive) | GI50 (HCT-15): > 100 µM | GI50 (BT-549): > 100 µM (inactive) | GI50 (MDA-N): > 100 µM (inactive) | GI50 (SK-OV-3): > 100 µM (inactive) | GI50 (MCF7): > 100 µM (inactive) | GI50 (LOX IMVI): > 100 µM (inactive) | GI50 (DU-145): > 100 µM (inactive) | GI50 (SK-MEL-2): > 100 µM (inactive) | GI50 (OVCAR-3): > 100 µM (inactive) | GI50 (M14): > 100 µM (inactive) | GI50 (IGROV-1): > 100 µM (inactive) | GI50 (UACC-257): > 100 µM (inactive) | GI50 (UO-31): > 100 µM (inactive) | GI50 (SN12C): > 100 µM (inactive) | GI50 (NCI-H522): > 100 µM (inactive) | GI50 (SK-MEL-5): > 100 µM (inactive) | GI50 (OVCAR-4): > 100 µM (inactive) | GI50 (NCI-H226): > 100 µM (inactive) | GI50 (SK-MEL-28): > 100 µM (inactive)
